Common to all, as to format: in vivo
Holding throughout (settings): applied at 125 g/ha, evaluated after 13 days

The subject of assay [1] is Setaria faberi (SETFA). Nature of the assay: Post-emergence herbicidal glasshouse test (Table B1). The procedure:
(§1) Seeds of a variety of test species are sown in standard soil in pots (Lolium perenne (LOLPE), Amaranthus retoflexus (AMARE), Abutilon theophrasti (ABUTH), Setaria faberi (SETFA), Echinochloa crus-galh (ECHCG), Ipomoea hederacea (IPOHE)). After cultivation for one day (pre-emergence) or after 8 days cultivation (post-emergence) under controlled conditions in a glasshouse (at 24/16° C., day/night; 14 hours light; 65% humidity), the plants are sprayed with an aqueous spray solution derived from the formulation of the technical active ingredient in acetone/water (50:50) solution containing 0.5% Tween 20 (polyoxyethelyene sorbitan monolaurate, CAS RN 9005-64-5). Compounds are applied at 500 g/h unless otherwise indicated. The test plants are then grown in a glasshouse under controlled conditions in a glasshouse (at 24/16° C., day/night; 14 hours light; 65% humidity) and watered twice daily. After 13 days for pre and post-emergence, the test is evaluated for the percentage damage caused to the plant. The biological activities are shown in the following table on a five-point scale (5=80-100%; 4=60-79%; 3=40-59%; 2=20-39%; 1=0-19%).

Assay [2] deals with Echinochloa crus-galh (ECHCG). The description is as above. On the procedure: as §1
Assay [3] concerns Amaranthus retoflexus (AMARE). The assay is described as above. The procedure:
as §1

For assay [4], the system named is Ipomoea hederacea (IPOHE). Described as above. On the procedure:
as §1

The test system of assay [5] is Setaria faberi (SETFA). Nature of the assay: Pre-emergence herbicidal glasshouse test (Table B1). The procedure: as §1
The test system of assay [6] is Echinochloa crus-galh (ECHCG). The description is as above. The procedure: as §1
The subject of assay [7] is Amaranthus retoflexus (AMARE). The description is as above. The procedure: as §1
In assay [8] the test system is Ipomoea hederacea (IPOHE). The assay is described as above. The procedure: as §1
Assay [9] concerns Abutilon theophrasti (ABUTH). The description is as above. The procedure: as §1

For the molecule `CCn1nnnc1NC(=O)c1ccc(OC(F)(F)F)c(NC(=O)COC(C)C)c1Cl` [Compound 1.072], in the assay with Setaria faberi (SETFA) [1], the “POST Application SETFA, percentage damage on five-point scale” value is given as 5 (5=80-100%). Also, the “POST Application ECHCG, percentage damage on five-point scale” value in assay [2] is 5 (5=80-100%). In addition, in [3], the “POST Application AMARE, percentage damage on five-point scale” value is listed as 4 (4=60-79%). Further, the “POST Application IPOHE, percentage damage on five-point scale” value in assay [4] is 4 (4=60-79%). Further, the “PRE Application SETFA, percentage damage on five-point scale” value (“PRE Application SETFA, percentage damage” below) in the assay on Setaria faberi (SETFA) [5] is given as 4 (4=60-79%). Further, the “PRE Application ECHCG, percentage damage on five-point scale” value (from here on “PRE Application ECHCG, percentage damage”) in assay [6] is on record as 5 (5=80-100%). In addition, the “PRE Application AMARE, percentage damage on five-point scale” value (shortened to “PRE Application AMARE, percentage damage”) in assay [7] is on record as 5 (5=80-100%). For the same molecule, in assay [8], the “PRE Application IPOHE, percentage damage on five-point scale” value (“PRE Application IPOHE, percentage damage” below) is on record as 5 (5=80-100%). Also, the “PRE Application ABUTH, percentage damage on five-point scale” value (from here on “PRE Application ABUTH, percentage damage”) in assay [9] is on record as 5 (5=80-100%).

With `CCOC(C)C(=O)Nc1c(OC(F)(F)F)ccc(C(=O)Nc2nnnn2CC)c1Cl` (stereo not drawn) [Compound 1.073], in the assay on Setaria faberi (SETFA) [1], the “POST Application SETFA, percentage damage on five-point scale” value is listed as 5 (5=80-100%). Further, in assay [2], the “POST Application ECHCG, percentage damage on five-point scale” value was 5 (5=80-100%). Besides, the “POST Application AMARE, percentage damage on five-point scale” value in [3] is recorded as 5 (5=80-100%). In assay [4], the “POST Application IPOHE, percentage damage on five-point scale” value is reported as 4 (4=60-79%). In addition, the “PRE Application SETFA, percentage damage” value in the assay on Setaria faberi (SETFA) [5] was 5 (5=80-100%). Also, the “PRE Application ECHCG, percentage damage” value in [6] is recorded as 5 (5=80-100%). Also, the “PRE Application AMARE, percentage damage” value in [7] is on record as 5 (5=80-100%). For the same molecule, the “PRE Application IPOHE, percentage damage” value in assay [8] is listed as 5 (5=80-100%). Moreover, the “PRE Application ABUTH, percentage damage” value in assay [9] is recorded as 5 (5=80-100%).

For the molecule `CCOCC(=O)Nc1c(OC(F)(F)F)ccc(C(=O)Nc2nnnn2CC)c1Cl` [Compound 1.074], the “POST Application SETFA, percentage damage on five-point scale” value in the assay with Setaria faberi (SETFA) [1] is 5 (5=80-100%). Moreover, the “POST Application ECHCG, percentage damage on five-point scale” value in [2] is on record as 5 (5=80-100%). The “POST Application AMARE, percentage damage on five-point scale” value in [3] was 5 (5=80-100%). Further, in assay [4], the “POST Application IPOHE, percentage damage on five-point scale” value was 5 (5=80-100%). Further, the “PRE Application SETFA, percentage damage” value in the assay with Setaria faberi (SETFA) [5] is 4 (4=60-79%). The “PRE Application ECHCG, percentage damage” value in assay [6] was 4 (4=60-79%). Also, in [7], the “PRE Application AMARE, percentage damage” value is 5 (5=80-100%). Moreover, the “PRE Application IPOHE, percentage damage” value in [8] is 5 (5=80-100%). Moreover, the “PRE Application ABUTH, percentage damage” value in assay [9] was 5 (5=80-100%).

`CCn1nnnc1NC(=O)c1ccc(OC(F)(F)F)c(NC(=O)C2(C)CC2)c1Cl` [Compound 1.075]: the “POST Application SETFA, percentage damage on five-point scale” value in the assay on Setaria faberi (SETFA) [1] is given as 5 (5=80-100%). Moreover, the “POST Application ECHCG, percentage damage on five-point scale” value in [2] is reported as 4 (4=60-79%). The “POST Application AMARE, percentage damage on five-point scale” value in assay [3] is on record as 4 (4=60-79%). In addition, in assay [4], the “POST Application IPOHE, percentage damage on five-point scale” value is given as 4 (4=60-79%). In the assay with Setaria faberi (SETFA) [5], the “PRE Application SETFA, percentage damage” value was 5 (5=80-100%). For the same molecule, the “PRE Application ECHCG, percentage damage” value in [6] is recorded as 5 (5=80-100%). The “PRE Application AMARE, percentage damage” value in [7] was 5 (5=80-100%). Moreover, the “PRE Application IPOHE, percentage damage” value in [8] was 5 (5=80-100%). In assay [9], the “PRE Application ABUTH, percentage damage” value is 5 (5=80-100%).

On to `CCC(C)C(=O)Nc1c(OC(F)(F)F)ccc(C(=O)Nc2nnnn2CC)c1Cl` (stereo not drawn) [Compound 1.076], for which, in the assay with Setaria faberi (SETFA) [1], the “POST Application SETFA, percentage damage on five-point scale” value was 4 (4=60-79%). Also, the “POST Application ECHCG, percentage damage on five-point scale” value in assay [2] is 5 (5=80-100%). Moreover, the “POST Application AMARE, percentage damage on five-point scale” value in assay [3] was 4 (4=60-79%). Besides, the “POST Application IPOHE, percentage damage on five-point scale” value in assay [4] is 4 (4=60-79%). In addition, the “PRE Application SETFA, percentage damage” value in the assay with Setaria faberi (SETFA) [5] is recorded as 5 (5=80-100%). Also, the “PRE Application ECHCG, percentage damage” value in [6] is reported as 5 (5=80-100%). Moreover, in [7], the “PRE Application AMARE, percentage damage” value is 5 (5=80-100%). The “PRE Application IPOHE, percentage damage” value in assay [8] is listed as 5 (5=80-100%). The “PRE Application ABUTH, percentage damage” value in assay [9] was 5 (5=80-100%).

The values above are taken from patent US20230219904A1 (SYNGENTA CROP PROTECTION AG, priority 2020, published 2023).
